{"source": "paper PMC11802567", "about": "“Anti-cancer activity of synthetic gefitinib-1,2,3-triazole derivatives against Hela cells via induction of apoptosis” (Frontiers in Chemistry, 2025)", "key": {"[1]": {"tested_on": "Hela cells", "assay": "MTT cell viability assay, Hela cells", "type": "cell-based", "conditions": "Homo sapiens, 48 h; for viability at 10 µM: mean ± SEM (n = 3)"}, "[2]": {"tested_on": "Hela cells", "design": "method as in Huang et al., 2022", "conditions": "72-h treatment; ref Huang et al., 2022; read-out: IC50, cytotoxicity to Hela cells; cited from earlier work"}, "[3]": {"tested_on": "Hela cells", "design": "method as in Khanam et al., 2019", "conditions": "ref Khanam et al., 2019; cited from earlier work"}, "[4]": {"tested_on": "NIH3T3 cells", "assay": "MTT cell viability assay, NIH3T3 cells", "type": "cell-based", "conditions": "Mus musculus, 48 h, tested 0-40 μM", "description": "(§1) To define the effects of compound c13 on cancer cell proliferation, the half-maximal inhibitory concentration (IC50) of compound c13 in Hela cells was calculated. Hela cells were treated with compound c13 at different concentrations (0 μM, 1 μM, 5 μM, 10 μM, 20 μM, and 40 μM) respectively for 48 h, and the cell viability was detected using the MTT method. […]. […] In contrast, its effect on the proliferation of HEK293T and NIH3T3 cells was minimal, with both IC50 values exceeding 100 μM.\n(§2) Figure S1. The effect of compound c13 on the survival rate of HEK293T, NIH3T3, and Hela cells. compound c13 (0, 10, 20, and 40 μM) was used to treat HEK293T, NIH3T3, and Hela cells for 48 hours, and the cell survival rate was detected using the MTT method (n=3)."}, "[5]": {"tested_on": "Hela cells", "assay": "Morphological profiles of Hela cells by microscope", "type": "cell-based, human", "conditions": "0, 5, 10, 20 μM", "description": "FIGURE 2 Anti-proliferative Effects of compound c13 on Hela cells. (A) Dose-dependent cytotoxicity of compound c13, assessed at concentrations ranging from 0 to 40 μM on HeLa cells. Cell viability was plotted against the logarithm of compound c13 concentrations (n = 3). (B) Morphological profiles of Hela cells were taken by microscope after treatment with compound c13 at different doses (0, 5, 10, and 20 μM) (n = 3). (C) Representative photomicrographs of plate colony formation assay data with compound c13 at different doses (0, 5, 10, and 20 μM) (n = 3).\n(§3) To validate the impact of compound c13 on cell proliferation, plate clone formation assay was performed."}, "[6]": {"tested_on": "Hela cells", "assay": "Apoptosis assay, Annexin V-FITC/PI flow cytometry", "type": "cell-based, human", "conditions": "20 μM, 48 h", "description": "To assess whether the anti-proliferative effects of compound c13 on Hela cells were associated with apoptosis, cell apoptosis after treatment of compound c13 was measured using Annexin V-FITC and propidium iodide (PI) staining by flow cytometer. […] Compared with the normal control group, compound c13 at 20 μM markedly raised the apoptotic ratio of Hela cells to 62.03% ± 9.48%.\nHela cells with a density of 1.5 × 10^5 cells/well were seeded in 12-well plates overnight for adhesion. The cells were treated with different concentrations of compounds (0, 5, 10, and 20 μM) for 48 h. After treatment, the cells were washed with PBS and stained with Annexin V-FITC and Propidium Iodide (PI) for 15 min in the dark. Cell apoptosis rate was detected by BD Accuri C6 Plus flow cytometry (BD Biosciences) and all analyses were performed with FlowJo software."}, "[7]": {"tested_on": "Hela cells", "assay": "Cell cycle analysis by flow cytometry (PI)", "type": "cell-based, human", "conditions": "48 h", "description": "To further evaluate the effect of compound c13 on the cell cycle, the cell cycle distributions of Hela cells after treatment of compound c13 were detected by flow cytometry.\nHela cells with a density of 1.5 × 10^5 cells/well were seeded in 12-well plates overnight. Different concentrations of compounds (0, 5, 10, and 20 μM) were added to treat the cells for 48 h. After treatment, the cells were washed with PBS and then the cells were fixed with 70% ethanol at −20°C overnight. Subsequently, the cells were stained with PI staining solution containing 10 μg/mL RNAase for 30 min in the dark. The data was collected by BD Accuri C6 Plus flow cytometry (BD Biosciences). All analyses were performed with FlowJo software."}, "[8]": {"tested_on": "Bax, Bcl-2, caspase 9, caspase 3, PARP1 in Hela cells", "assay": "Western blot of apoptosis-associated proteins in Hela cells", "type": "cell-based, human", "conditions": "10 and 20 μM", "source_text": "To explore whether the induction of apoptosis caused by compound c13 was associated with the activation of the apoptosis-related protein, a western blot was used to detect the expression of the protein including Bax and Bcl-2. […] Furthermore, the ratio of Bax to Bcl-2 was raised after being treated with compound c13, leading to apoptosis in Hela cells.\nTo determine the potential function of compound c13 in the regulation of the apoptosis signaling pathway, downstream key proteins containing caspase 3, caspase 9, and PARP1 were detected by western blot. […] Besides, a corresponding increase in the levels of cleaved-caspase 3, and cleaved-PARP1 was observed (Figure 6).\nWhole cell extracts were prepared by lysing cells on ice for 30 min using RIPA lysis buffer (Beyotime Biotechnology, Shanghai, China). Following centrifugation at 12, 000 g for 15 min at 4°C, the supernatants were collected. The protein content concentrations of samples were determined according to the manufacturer’s protocol for the BCA protein assay kit (Thermo Scientific, Rockford, IL, United States).\nEqual amounts of protein were resolved using sodium dodecyl sulfate polyacrylamide gel electrophoresis (SDS-PAGE) and subsequently transferred to a 0.2 μm nitrocellulose membrane. The membranes underwent blocking for a minimum of 1 h in 5% skimmed milk diluted in TBST. Subsequently, the blots were incubated overnight at 4°C with primary antibodies. Primary antibodies used were include, Bcl-2 (ABclonal, Wuhan, China), Bax (Wanleibio, Shenyang, China), Caspase 9/p35/p10 antibody (Proteintech, Wuhan, China), Caspase 3/p17/p19 (Proteintech, Wuhan, China), PARP-1 (Proteintech, Wuhan, China), β-actin (Sigma-Aldrich, St Louis, MO, United States). Following incubation, the membranes were washed three times with TBST buffer and then incubated with secondary antibodies (Kangchen Biotechnology, Shanghai, China) for 1 h at room temperature. Subsequently, the blots were washed three times with TBST buffer and developed using an enhanced chemiluminescence reagent (Millipore Corporation, Bedford, MA, United States). The intensity of each protein band was quantitatively analyzed using ImageJ software."}, "[9]": {"tested_on": "Hela cells", "assay": "Plate clone formation assay", "type": "cell-based, human", "conditions": "0, 5, 10, 20 μM, dose-dependent", "description": "as §3\nHela cells with a density of 5 × 10^2 cells/well were seeded in 6-well plates overnight. The cells were treated with different concentrations of compounds (0, 5, 10, and 20 μM) were added and continued to be cultured at 37°C with 5% CO2. When more than 50 cell clone formations were visible, the culture medium was discharged. Then, the cells were fixed with 2 mL of 4% paraformaldehyde for 15 min and stained with 2 mL of crystal violet solution at room temperature for 15 min. A microscope was used to take photos and count the number of cell clones."}, "[10]": {"tested_on": "HEK293T cells", "assay": "MTT cell viability assay, HEK293T cells", "type": "cell-based", "conditions": "Homo sapiens, HEK-293T, 48 h, tested 0-40 μM", "description": "as §1, §2"}}, "note": "Where two headings read alike, the source gives them in different places."}
{"smiles": "COc1cc2ncnc(Nc3ccc(F)c(Cl)c3)c2cc1OCCCN1CCOCC1", "note": "[Gefitinib]", "values": [{"measurement": "viability at 10 µM", "setting": "[1]", "result": "75.9 ± 2.88", "unit": "%"}]}
{"smiles": "C[C@]12CC[C@@H]3c4ccc(O)cc4CC[C@H]3[C@@H]1CC[C@@H]2O", "note": "[β-estradiol]", "values": [{"measurement": "IC50", "setting": "[2]", "result": "18.7 ± 1.57", "unit": "µM"}]}
{"smiles": "Nc1ccc(-c2nnc(CN3CCN(C(c4ccccc4)c4ccccc4)CC3)o2)cc1", "note": "[4d, N-benzhydryl-4-((5-(4-aminophenyl)-1,3,4-oxadiazol-2-yl)methyl)piperazine]", "values": [{"measurement": "IC50, HeLa cells", "setting": "[3]", "result": "28.13 ± 0.21", "unit": "µg/mL"}]}
{"smiles": "COc1cccc2c1C(=O)c1c(O)c3c(c(O)c1C2=O)C[C@@](O)(C(=O)CO)C[C@@H]3O[C@H]1C[C@H](N)[C@H](O)[C@H](C)O1", "note": "[Doxorubicin, reference compound]", "values": [{"measurement": "viability at 10 µM", "setting": "[1]", "result": "11.9 ± 1.2", "unit": "%"}]}
{"smiles": "COc1cc2ncnc(Nc3cccc(-c4cn(Cc5cc(Br)cc(Br)c5)nn4)c3)c2cc1OCCCN1CCOCC1", "note": "[c13, N-(3-(1-(3,5-dibromobenzyl)-1H-1,2,3-triazol-4-yl)phenyl)-7-methoxy-6-(3-morpholinopropoxy)quinazolin-4-amine]", "values": [{"measurement": "IC50", "setting": "[4]", "result": "> 100", "unit": "µM"}, {"measurement": "Morphological changes of Hela cells", "setting": "[5]", "result": "severe morphological changes"}, {"measurement": "Apoptotic ratio of Hela cells", "setting": "[6]", "result": "62.03% ± 9.48%"}, {"measurement": "Proportion of the G1 phase", "setting": "[7]; 20 μM, printed as % of control group", "result": "52.05% ± 2.85%"}, {"measurement": "Percentage of cells in the G2/M phase", "setting": "[7]; 10 and 20 μM", "result": "upregulated"}, {"measurement": "Level of cleaved-PARP1", "setting": "[8]", "result": "increase"}, {"measurement": "Level of cleaved-caspase 3", "setting": "[8]", "result": "increase"}, {"measurement": "Level of cleaved-caspase 9", "setting": "[8]", "result": "tendency of upregulation but had no significant difference"}, {"measurement": "Protein expression of pro-apoptotic Bax", "setting": "[8]", "result": "enhanced"}, {"measurement": "Protein level of anti-apoptotic Bcl-2", "setting": "[8]", "result": "diminished"}, {"measurement": "Ratio of Bax to Bcl-2", "setting": "[8]", "result": "raised"}, {"measurement": "Protein level of full-length PARP1", "setting": "[8]; vs control group", "result": "decreased"}, {"measurement": "Protein level of full-length caspase 3", "setting": "[8]; vs control group", "result": "decreased"}, {"measurement": "Protein level of full-length caspase 9", "setting": "[8]; vs control group", "result": "decreased"}, {"measurement": "Colony formation ability of Hela cells", "setting": "[9]", "result": "significantly inhibited the colony formation ability"}, {"measurement": "IC50", "setting": "[10]", "result": "> 100", "unit": "µM"}, {"measurement": "viability at 10 µM", "setting": "[1]", "result": "32.6 ± 8.61", "unit": "%"}, {"measurement": "IC50", "setting": "[1]; read-out: IC50 against Hela cells", "result": "5.66 ± 0.35", "unit": "µM"}]}
